Data from US20120122870A1, “Treatment Of Ischemia-Reperfusion Injury” (MUSC FOUNDATION FOR RESEARCH DEVELOPMENT, priority 2009, published 2012).
“Also recorded” adds a separate entry of the source.

What was measured:
[1] = test system: kidney ischemia-reperfusion in C57/Bl6 mice; experiment: Ischemia-reperfusion of the kidney (mild model), BUN and creatinine; assay type: in vivo; settings: 50 mg/kg oral gavage
Method: ABC294640 reduces kidney damage following ischemia-reperfusion. Male C57/Bl6 mice (approximately 24 g) were first dosed with ABC294640 (50 mg/kg in 0.1 mL by oral gavage) or vehicle (0.1 mL in 0.375% Tween 80 in Phosphate-Buffered Saline), immediately followed by intraperitoneal injection of ketamine/xylazine for anesthesia. The procedure was performed on a heated surface using homeothermic pads to ensure the maintenance of animal body temperature. A midline incision was made and the two renal pedicles were located and clamped for 22 minutes or 25 minutes as indicated. Total blockage of the renal pedicle and thus artery was confirmed after several minutes as the kidney were seen to be dark red to purple in color, assuring correct clamp placement. […] One milliliter of pre-warmed (37° C.) sterile saline was instilled into the peritoneum at the time of closing using sutures for musculature and wound clips for the skin incision. Animals were maintained on homeothermic pads until awakening from anesthesia and post-operatively assessed for health.
Levels of blood urea nitrogen (BUN) were determined as an indicator of renal function. […] Therefore, the SK inhibitor substantially improves kidney function that persists for at least 3 days after drug administration.
ABC294640 reduces kidney damage following ischemia-reperfusion. Kidney ischemia-reperfusion was repeated as in Example 1, except that the duration of bilateral pedicle clamping was 25 minutes and animals were sacrificed 24 hours after surgery.
Ischemia-reperfusion of the kidney (mild model): Male C57/Bl6 mice (approximately 24 g) were first dosed with ABC294640 (50 mg/kg in 0.1 ml by oral gavage) or vehicle (0.1 ml in 0.375% Tween 80 in Phosphate-Buffered Saline), immediately followed by intraperitoneal injection of ketamine/xylazine for anesthesia. The procedure was performed on a heated surface using homeothermic pads to ensure the maintenance of animal body temperature. […] Animals were maintained on homethermic pads until awakening from anesthesia and post-operatively assessed for health.

[2] = test system: severe kidney ischemia-reperfusion in mice; experiment: Ischemia-reperfusion of the kidney (severe model), survival, BUN and creatinine; assay type: in vivo
Method: ABC294640 promotes survival in a severe model of kidney damage. To evaluate the protective effects of ABC294640 in a more severe IR model, mice were treated with ABC294640 (50 mg/kg in 0.1 mL by oral gavage) or vehicle (0.1 ml in 0.375% Tween-80 in PBS), and then the right kidney was ligated and removed and the left kidney pedicle was clamped for 45 min before reperfusion. Animals were assessed daily for postoperative health, including scoring for weight loss, activity and appearance. Following severe IR, vehicle-treated mice consistently died or were sacrificed because of severe ill health on post-surgery Day 2 (FIG. 3). In marked contrast, mice that received 50 mg/kg ABC294640 preoperatively all survived the IR insult.
ABC294640 protects against renal failure in a severe model of kidney damage. Blood was drawn from the severe IR mice at sacrifice, and levels of blood urea nitrogen (BUN) and creatinine were determined as indicators of renal function (FIG. 4). As expected, serum creatinine and BUN levels were highly elevated in the vehicle-treated IR animals (clear bars) compared with sham animals (hatched bars), indicative of post-surgical renal failure.
Ischemia-reperfusion of the kidney (severe model): The irreversible model was performed in a similar manner to the reversible model described above with the exception that the right kidney pedicle was tied off and the kidney removed and the left kidney was clamped for 45 minutes.

[3] = test system: hepatic apoptosis after warm IR; experiment: TUNEL apoptosis in liver after hepatic warm IR; assay type: in vivo, mice; settings: 1 h-ischemia plus 6 h-reperfusion
Method: ABC294640 prevents hepatic warm IR-induced cell death. SK increased after hepatic IR, therefore, we investigated whether ABC294640 protects against hepatic IR injury. […] Necrotic areas became panlobular after 1 h-ischemia plus 6 h of reperfusion (FIG. 10, middle). Necrotic area, quantified by computerized image analysis of 10 random fields per slide, accounted for 68% of the liver tissue (FIG. 11A). After ABC294640 treatment, necrosis was decreased to 7%, which represents an almost 90% attenuation as compared to the vehicle-treated livers (FIG. 11A). Hepatic apoptosis was evaluated by terminal deoxylnucleotidyl transferase-mediated deoxyuridine triphosphate biotin nick end labeling (TUNEL) (FIG. 11B). TUNEL-positive cells were rare in livers from sham-operated mice (0.13 cells/high power field (hpf)). TUNEL staining increased slightly to 2 cells/hpf after 1 h-ischemia plus 6 h-reperfusion (FIG. 11B). […] The TUNEL assay was performed to assess apoptosis using an In Situ Cell Death Detection Kit (Roche Diagnostics Corp., Indianapolis, Ind.). TUNEL-positive and negative cells were counted in 10 randomly selected fields using a 40× objective lens. Apoptosis was verified morphologically by identifying condensed and fragmented nuclei in 10 randomly selected fields in H+E slides ([…] et al. 1995).

[4] = test system: phosphorylated p65 subunit of NF-κB; experiment: Phosphorylated p65 NF-κB immunoblot after hepatic warm IR; assay type: in vivo, mice; settings: livers harvested 2 h after IR
Method: ABC294640 prevents hepatic warm IR-induced tumor necrosis factor-α (TNFα) formation and NF-κB activation. Toxic cytokine formation and inflammatory processes play important roles in IR injury, and S1P is well known to promote inflammation. Accordingly, we investigated whether ABC294640 affects the expression of the pro-inflammatory cytokine TNFα after IR. Livers were harvested at 2 h after reperfusion and TNFα mRNA was detected by quantitative real time PCR. TNFα mRNA increased ˜10-fold after IR (FIG. 15, upper). ABC294640 blunted this increase in TNFα mRNA by ˜50%. NF-κB activation is involved in inflammatory cytokine formation and upregulation of adhesion molecules. After IR, phosphorylation of p65 subunit of NF-κB increased markedly, indicating NF-κB activation. This effect was also blunted by ABC294640 (FIG. 15 lower) which is consistent with our previous studies of NF-κB activation. Western blotting: Briefly, liver tissue was homogenized in a 0.1% Triton-X100 buffer containing a protease inhibitor cocktail, and the extract was centrifuged at 12,000×g for 10 min at 4° C. […] Expression of the protein of interest was quantified by the density of Western blot images by densitometry and standardized by house keeping gene actin.

[5] = 25 minutes bilateral clamping, 24 hours after reperfusion
[6] = severe kidney IR, 48 hr (2 days) post-surgery
[7] = severe kidney IR, post-surgery Day 10

O=C(NCc1ccncc1)C12CC3CC(C1)CC(c1ccc(Cl)cc1)(C3)C2 [ABC294640, 3-(4-chlorophenyl)-N-(pyridin-4-ylmethyl)adamantane-1-carboxamide]
BUN levels vs vehicle [1, 5]: significantly lower; also recorded: substantially lower | creatinine levels vs vehicle [1, 5]: significantly lower; also recorded: substantially lower | BUN levels vs vehicle ([1]; bilateral renal pedicle clamping, 72 hours after reperfusion): significantly lower | survival after severe kidney IR ([2]; 50 mg/kg oral gavage preoperatively, right kidney removed, left pedicle clamped 45 min): all survived | survival time after severe kidney IR ([2]; 50 mg/kg oral gavage, right kidney removed, left kidney clamped 45 minutes): at least 9 days | postoperative health at sacrifice ([2]; severe kidney IR, 50 mg/kg, post-surgery Day 9, 50 mg/kg): in good health; also recorded: appeared robust and were gaining weight | BUN vs vehicle [2, 6]: significantly reduced | serum creatinine vs vehicle [2, 6]: significantly reduced | BUN [2, 7]: returned to normal; also recorded: returning to normal | serum creatinine [2, 7]: returned to normal; also recorded: returning to normal | increase of TUNEL-positive cells [3]: partially blocked | phosphorylation of p65 subunit of NF-κB (NF-κB activation) [4]: blunts
